Assay results published in US20260345742A1, “SYNTHETIC SURFACTANTS FOR INHIBITING CORONAVIRUS INFECTION” (priority 2022, published 2026).
Read-outs that look alike come from different tables or passages of the source. Ends that are not written are not given here.

Key:
SARS-CoV-2 RBD = SARS-CoV-2 RBD (Severe acute respiratory syndrome coronavirus 2, UniProt P0DTC2); assay: SPR binding (Biacore T200) of SARS-CoV-2 RBD to chip-linked biotinylated B-YL
Procedure: FIG. 3. Surface plasmon resonance (SPR) sensorgrams of rbCovid-19-RBD protein construct and human ACE2 receptor binding to immobilized B-YL peptide. The B-YL peptide was biotinylated to facilitate attachment to the Biacore chip as described in Methodology. Solutions of 1 μM recombinant protein in HBS-EP buffer (10 mM Hepes, pH 7.4, 150 mM NaCl, 3 mM EDTA, 0.005% surfactant P20) were then flowed over the respective chip-linked peptides. The concentration dependent binding of the viral RBD construct (A) and the human ACE-2 receptor (B) to the B-YL lung surfactant peptide are shown with the SPR response indicated in relative response units (RU) on the graph's Y-axis.
One of the best in vitro determinations of the binding of proteins and peptides to one another is by surface plasmon resonance (SPR). This technique allows the direct measurement of the binding of a peptide or protein by attaching one protein to a sensor chip surface and flowing a solution containing a second protein over the surface. The binding affinities derived from such measurements are very similar to those observed in vivo.
The binding affinity of the B-YL lung surfactant peptide to the coronavirus recombinant spike protein construct of SARS-CoV-2 (viral spike protein amino acid sequence) that included the Receptor Binding Domain (RBD) was measured with SPR spectroscopy using a Biacore T200 system (GE Healthcare Bio-Sciences Corp, Piscataway, NJ 08855).
B-YL peptide binding to the recombinant SARS-CoV-2 RBD domain dissolved in a series of seven concentrations (1,000, 500, 250, 125, 62.5, 31.25 and 0 nM) in the analyte and was determined from the sensorgrams, in which arbitrary response units (RUS) are recorded as a function of time.
In Table 1, association and dissociation kinetic rate constants (kon, koff) and equilibrium dissociation constants (KD) were calculated from surface plasmon resonance (SPR) kinetic measurements for aqueous SARS-CoV-2 RBD expressed protein flowing past B-YL surfactant peptide on the Biacore chip. The recombinant SARS-CoV-2 RBD protein was dissolved in running buffer and was flowed past the sensor chip with a BiocoreT200 system (Methods). Kinetic rate constants and equilibrium dissociation constants were determined from curve fitting analysis of SPR traccs.
The binding affinities of the B-YL lung surfactant peptide to the Angiotensin-Converting Enzyme 2 (ACE-2) receptor recombinant construct (human amino acid sequence) and the coronavirus recombinant spike protein construct of Covid-19 (viral spike protein amino acid sequence) that included the Receptor Binding Domain (RBD) were measured with surface plasmon resonance (SPR) spectroscopy using a Biacore T200 system (GE Healthcare Bio-Sciences Corp, Piscataway, NJ 08855).
The SPR binding study was accomplished by associating the ligand (B-YL peptide) immobilized on the SPR sensor surface, and the solute containing the ACE-2 or the Covid-19 protein construct was then flowed past the sensor linked molecule. The binding of the solute to the sensor surface ligand results in an evanescent sensor response, is measured in Response Units (RU) that are proportional to the bound mass.
In Table 3, Association and dissociation kinetic rate constants (kon, koff) and equilibrium dissociation constants (KD) were calculated from surface plasmon resonance (SPR) kinetic measurements for aqueous RBD, and ACE2 flowing past BYL attached to a Biacore chip. Proteins were dissolved in running buffer (10 mM HEPES, 150 mM NaCl, 3 mM EDTA, 0.005% Surfactant P20, pH 7.4) and were flowed past biotin linked B-YL peptide construct on a CSM sensor chip with a Biacore system (Methodology). Kinetic rate constants and equilibrium dissociation constants were determined from curve fitting analysis of SPR traces.

ACE2 = ACE2 (Homo sapiens, UniProt Q9BYF1); assay: SPR binding (Biacore T200) of ACE2 to chip-linked biotinylated B-YL
[1] = Aqueous solution solubility; assay type: physicochemical; details: stated as the reason for biotinylation

Chain of ACE2 (Q9BYF1 18-805): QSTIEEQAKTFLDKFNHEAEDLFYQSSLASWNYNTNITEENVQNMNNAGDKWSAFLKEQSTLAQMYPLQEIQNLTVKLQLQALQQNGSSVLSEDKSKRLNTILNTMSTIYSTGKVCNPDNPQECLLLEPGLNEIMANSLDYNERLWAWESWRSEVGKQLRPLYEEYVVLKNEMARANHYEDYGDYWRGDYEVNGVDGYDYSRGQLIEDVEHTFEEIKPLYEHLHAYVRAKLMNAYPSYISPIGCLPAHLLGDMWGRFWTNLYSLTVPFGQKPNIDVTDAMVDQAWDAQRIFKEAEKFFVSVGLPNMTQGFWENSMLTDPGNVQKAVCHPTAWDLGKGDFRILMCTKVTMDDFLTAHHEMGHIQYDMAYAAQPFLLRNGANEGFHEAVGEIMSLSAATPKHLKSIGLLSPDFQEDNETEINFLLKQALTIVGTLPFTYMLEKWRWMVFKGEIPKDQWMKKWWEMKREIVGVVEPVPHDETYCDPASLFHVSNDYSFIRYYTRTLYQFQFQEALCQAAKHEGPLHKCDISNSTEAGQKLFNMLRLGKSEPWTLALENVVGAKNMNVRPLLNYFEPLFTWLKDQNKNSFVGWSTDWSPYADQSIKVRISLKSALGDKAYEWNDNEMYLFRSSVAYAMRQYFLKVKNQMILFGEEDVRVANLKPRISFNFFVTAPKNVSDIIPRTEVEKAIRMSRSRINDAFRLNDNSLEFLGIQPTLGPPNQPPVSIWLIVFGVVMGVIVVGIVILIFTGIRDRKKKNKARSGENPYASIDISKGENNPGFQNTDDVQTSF

FPIPLPYYWLYRALIKRIQALIPKGGRLLPQLVYRLVLRYS [B-YL]
koff (SARS-CoV-2 RBD): 5.08 × 10^−02 1/s | Kd (SARS-CoV-2 RBD; RBD(wt) - B-YL, expt. data - SPR (Table 2)): 57 µM | Kd (SARS-CoV-2 RBD; Table 1, aqueous SARS-CoV-2-RBD over chip-associated biotinylated B-YL, HBS-EP pH 7.4, 37 °C, KD=koff/kon): 56.9 µM | Kd (SARS-CoV-2 RBD; Table 3, aqueous RBD over chip-linked B-YL, pH 7.4, 37 °C, KD=koff/kon): 57 µM | koff (SARS-CoV-2 RBD; pH 7.4): 0.0508 s⁻¹ | kon (SARS-CoV-2 RBD; pH 7.4, Table 1, aqueous SARS-CoV-2-RBD over chip-associated biotinylated B-YL, HBS-EP pH 7.4, 37 °C): 890 M⁻¹ s⁻¹ | kon (SARS-CoV-2 RBD; pH 7.4, Table 3, aqueous RBD over chip-linked B-YL, pH 7.4, 37 °C): 892 M⁻¹ s⁻¹ | Kd (ACE2): 4.37 µM | koff (ACE2; pH 7.4): 0.013 s⁻¹ | kon (ACE2; pH 7.4): 2980 M⁻¹ s⁻¹ | aqueous solution solubility [1]: limited aqueous solution solubility
